Here are results for one cell line from the supplement of paper PMC10307832.

Common to all, as to test: relative viability (nuclei count vs DMSO), 5 days (fraction); higher = more cells survive
Compound in the test “Ricolinostat + Lapatinib”: O=C(CCCCCCNC(=O)c1cnc(N(c2ccccc2)c2ccccc2)nc1)NO [Ricolinostat] + CS(=O)(=O)CCNCc1ccc(-c2ccc3ncnc(Nc4ccc(OCc5cccc(F)c5)c(Cl)c4)c3c2)o1 [Lapatinib] (partner 2 µM)
Put shortly:
(§1)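 Lung cancer cell lines, seeded in 1536-well plates, were treated the following day by pin tool with a single drug or with five library-drug doses (not always all listed) in √10 steps on top of a fixed anchor-drug dose. Cells were fixed and nuclei stained in one step after 5 days, and nuclei were counted. Relative viability is the nuclei count for treated wells divided by that for vehicle wells, reported as medians of duplicate plates.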

Compound in the test “TGX 221 + Palbociclib”: CC1=CN2C(=O)C=C(N=C2C(=C1)C(C)NC3=CC=CC=C3)N4CCOCC4 [TGX 221] + CC(=O)c1c(C)c2cnc(Nc3ccc(N4CCNCC4)cn3)nc2n(C2CCCC2)c1=O [Palbociclib] (partner 0.5 µM)
The method, boiled down:
as §1

Compound in the test “TGX 221 + Crizotinib”: CC1=CN2C(=O)C=C(N=C2C(=C1)C(C)NC3=CC=CC=C3)N4CCOCC4 [TGX 221] + C[C@@H](Oc1cc(-c2cnn(C3CCNCC3)c2)cnc1N)c1c(Cl)ccc(F)c1Cl [Crizotinib] (partner 1 µM)
Put shortly:
as §1

Compound in test [1]: C1=CC=C(C(=C1)C2=CC=C(C=C2)C3=CSC4=C3C(=C(C(=O)N4)C#N)O)O + CC(=O)c1c(C)c2cnc(Nc3ccc(N4CCNCC4)cn3)nc2n(C2CCCC2)c1=O [Palbociclib] (partner 0.5 µM)
The method, boiled down:
as §1

For NCI-H1792, the relative viability in the test with Ricolinostat + Lapatinib (first compound 0.08 µM) turned out to be 0.719; with Ricolinostat + Lapatinib (first compound 0.253 µM) it was 0.918; in the test with Ricolinostat + Lapatinib (first compound 0.8 µM), 0.863; with Ricolinostat + Lapatinib (first compound 2.53 µM), 1.01; with TGX 221 + Palbociclib (first compound 0.08 µM), 0.593; in the test with TGX 221 + Palbociclib (first compound 0.253 µM), 0.625. For the same cell line, the relative viability in the test with TGX 221 + Palbociclib (first compound 0.8 µM) worked out at 0.654; in the test with TGX 221 + Palbociclib (first compound 2.53 µM), 0.57; in the test with TGX 221 + Palbociclib (first compound 8 µM), 0.582; with TGX 221 + Crizotinib (first compound 0.08 µM), 0.883; with TGX 221 + Crizotinib (first compound 0.253 µM), 1.08; with TGX 221 + Crizotinib (first compound 0.8 µM), 0.944. Moreover, the relative viability with TGX 221 + Crizotinib (first compound 2.53 µM) turned out to be 0.948; with TGX 221 + Crizotinib (first compound 8 µM), 0.857; in test [1] (first compound 0.253 µM), 0.65; in test [1] (first compound 2.53 µM) it was 0.895; in test [1] (first compound 8 µM), 0.355.
